Data from patent US20220226342A1, “COMPOSITIONS AND METHODS OF TREATING LIVER CANCERS” (The Johns Hopkins University, priority 2019, published 2022).

Experiments:
Assay type in all cases: cell-based, human
40 HCC PDO lines = assay: 10 μM drug screening, cell viability at 96 h (CellTiter-Glo)
Procedure: FIG. 2A-2E. 10 μM drug screening and IC50 calculation across 40 PDOs from 20 HCC patients. (2A). 10 μM drug screening of omacetaxine and sorafenib, regorafenib, lenvatinib and cabozantinib on 40 PDOs derived from 20 HCC patients. X axis—the 40 PDO lines, Y axis—Cell viability. (2B). IC50 curve of 40 PDO lines, x-axis—omacetaxine dose, Y axis—Relative cell viability. (2C). […] (2D). IC50 distribution of 40 HCC PDOs. X axis—PDO lines, Y axis—IC50 number of omacetaxine for each PDO.
As readout of drug effectiveness, cell viability at 96 hours (h) was measured. White light microscopy images of one of the HCC PDO lines across 129 drugs was prepared. In FIG. 2E, each panel represents the image collected at 96 hours after treatment with each drug, at a concentration of 10 μM. […] To quantify survival, we implemented CellTiter-Glo, a luminescent cell viability assay. A total of 129 readings (one for each drug) was obtained for each of the 40 PDO lines, for a total of […] data points. […] Next, the inventors contrasted the survival of the […] HCC PDO lines when treated with omacetaxine versus current FDA approved drugs for HCC.

6 HCC PDO lines [1] = assay: Annexin V / 7AAD flow cytometry apoptosis assay; settings: 700 μM, 350 μM, 96 h
Procedure: (§1) FIG. 5A-5E. Apoptosis analysis of HCC PDOs treated with omacetaxine in vitro. Organoids were plate on 24 well plate, omacetaxine at 700 μM, 350 μM were added to cell culture medium for 96 h. Then cells were collected and subjected to the analysis below. (5A and 5C). […] (5B and 5D). Flow cytometry analysis of cleaved caspase 3 expression of omacetaxine treated HCC PDOs. […] The effects on proliferation were assessed to elucidate the omacetaxine mechanisms of action. […] To further understand the effects of omacetaxine on cancer cell proliferation and cell cycle, the inventors performed FACS analysis of Ki67 protein. Ki-67 is a nuclear protein expressed in proliferating cells (in all phases of the cell cycle except G0)^22,23. Furthermore, the higher expression of Ki67 has been linked to poorer disease free survival and overall survival in HCC^24. […] As caspase 3 is a key molecule in apoptosis, the inventors measured its activated (cleaved) fragment.

6 HCC PDO lines [2] = assay: cleaved caspase 3 flow cytometry
Procedure: as §1, with “5C). Flow cytometry analysis of 4 HCC PDOs apoptosis using Annexin V/7AAD assay.” for “5C).”

[3] = system: global protein synthesis in 6 HCC PDOs; assay: OP-Puro incorporation assay (EZClick Global Protein Synthesis Assay)
Source text: FIG. 3A-3H. Mechanism of Omacetaxine action on different HCC patient derived organoids lines. (3A). […] (3B). […] (3C) The mean fluorescence intensity ratio reflected protein synthesis rate of the plots data in (a). (3D-3H).

## COC(=O)C[C@](O)(CCCC(C)(C)O)C(=O)O[C@@H]1C(OC)=C[C@]23CCCN2CCc2cc4c(cc2[C@H]13)OCO4 [omacetaxine, omacetaxine mepusuccinate]
40 HCC PDO lines
  survival of HCC PDO lines versus FDA approved HCC drugs (sorafenib, lenvatinib, regorafenib, cabozantinib): significantly more effective than first line HCC drugs (sorafenib and lenvatinib) and second line HCC drugs (regorafenib and cabozantinib
40 HCC PDO lines; 96 h
  effectiveness in screen (growth inhibited by ≥50%): effective across all 40 HCC PDO lines
40 HCC PDO lines; 96 h, across all 40 HCC PDO lines
  average HCC PDO survival: 4.2%
6 HCC PDO lines [1]
  early / late apoptosis (Annexin V, 7AAD): either early apoptosis, or late apoptosis, or both were increased
6 HCC PDO lines [2]
  cleaved caspase 3: induced
[3]; 150 nM and 700 nM, 6 HCC PDOs, 36 h
  global protein synthesis: drastically inhibited global protein synthesis
[3]; 700 nM vs 150 nM
  protein synthesis inhibition at 700 nM compared with 150 nM: did not induce any further inhibition of protein synthesis
